Read-outs that look alike come from different tables or passages of the source.
Columns and labels:
[1] = tested on: P. erythroseptica; assay: Example 8 sensitivity testing of potato tuber pathogens to imazalil derivatives (EC50); format: cell-based, Phytophthora erythroseptica; conditions: for EC50: Trial B, read-out: EC50 (concentration required to reduce mycelial growth by 50%)
Experimental: (§1) For tests with imazalil sulphate and imazalilium docusate prepared according to Trial B, imazalil sulphate (0.5 g, drug pure, Janssen) was dissolved in sterile water (100 ml) to give a stock solution (12.7 mM). […] Dilutions (alternately five-fold and two-fold) of each of these stock solutions were prepared (in water for imazalil sulphate and in ethanol for imazalilium docusate) to produce a dilution series (12.7, 2.54, 1.27, 0.25, and 0.13 mM).
(§2) Log-probability plots of the percentage reduction in growth against the concentration were used to estimate EC50 values (the concentration required to reduce mycelial growth by 50%) (see Table 6).

[2] = tested on: Phoma foveata; assay: as above; format: cell-based; conditions: isolate Phoma foveata BL2/5 T3, Trial B, read-out: EC50 (concentration required to reduce mycelial growth by 50%)
Experimental: as §1, §2

[3] = tested on: Phoma exigua; assay: as above; format: cell-based; conditions: isolate Phoma exigua 9.1; Trial B; read-out: EC50 (concentration required to reduce mycelial growth by 50%)
Experimental: as §1, §2

[4] = tested on: F. culmorum; assay: as above; format: cell-based; conditions: isolate F. culmorum P13, Trial B, read-out: EC50 (concentration required to reduce mycelial growth by 50%)
Experimental: as §1, §2

[5] = tested on: F. sambucinum; assay: as above; format: cell-based; conditions: Trial B, read-out: EC50 (concentration required to reduce mycelial growth by 50%)
Experimental: as §1, §2

[6] = tested on: F. coeruleum; assay: as above; format: cell-based; conditions: isolate F. coeruleum ex B7/06 T8; Trial B; read-out: EC50 (concentration required to reduce mycelial growth by 50%)
Experimental: as §1, §2

[7] = Thermogravimetric analysis (thermal stability); format: physicochemical; conditions: TGA under nitrogen, 5° C./min
Experimental: Thermogravimetric analysis was performed on a Mettler Toledo Star^e TGA/DSC (Leicester, UK) under nitrogen. Samples between 5 and 10 mg were placed in open alumina pans and were heated from 25° C. to 600° C. with a heating rate of 5° C./min. Decomposition temperatures (T5% dec) were reported from onset to 5 wt % mass loss Infrared spectra were recorded as neat samples from 4000-450 cm^−1 on a Perkin-Elmer Spectrum 65 FT-IR spectrometer fitted with a Universal ATR Sampling Accessory. Differential scanning calorimetry (DSC) was performed on a Mettler Toledo Star^e DSC (Leicester, UK) under nitrogen. Samples between 5 and 10 mg were heated from 25° C. to 110° C. at a heating rate of 5° C./min followed by a 5 min isotherm. A cooling rate of 5° C./min to −70° C. was followed by a 5 min isotherm at −70° C., and the cycle was repeated twice. A melting transition was observed as single-event peak in the first run. […] Transitions above ambient temperature were confirmed optically on a Stuart SMP3 melting point apparatus.

[8] = tested on: Phytophthora erythroseptica; assay: Example 7 sensitivity testing of potato tuber pathogens to thiabendazole derivatives; format: cell-based; conditions: in words; Table 5
Experimental: In vitro tests of the IL thiabendazolium docusate were performed in comparison to the neutral fungicide using selected isolates of Fusarium spp., the cause of potato dry rot. F. coeruleum and F. culmorum are sensitive to thiabendazole whereas isolates of F. sambucinum are frequently resistant. Isolates of Phoma spp., the cause of gangrene, and Phytophthora erythroseptica, the cause of pink rot, were also tested. All except F. sambucinum ex SASA were isolated in a laboratory. F. sambucinum ex SASA was supplied by SASA (Science and Advice for Scottish Agriculture, Roddinglaw Road, Edinburgh, EH12 9F, UK).
In each test three replicate plates for each organism per concentration were used and tests were repeated at least once.

[9] = isolate P. erythroseptica BL2/08 P31

For `C=CCOC(Cn1ccnc1)c1ccc(Cl)cc1Cl` (stereo not drawn) [Imazalil, imazalil, reference compound], the EC50 ([1]; Phytophthora erythroseptica, isolate P. erythroseptica Rooster Eire) was > 127 µM, the EC50 [1, 9] was > 127 µM and the EC50 ([2]; Boeremia foveata) was 2.7 µM. For the same molecule, the EC50 [3] was 5.6 µM, the EC50 ([4]; Fusarium culmorum) was 0.4 µM and the EC50 ([5]; Fusarium sambucinum, isolate F. sambucinum L'gall 11) was 1.8 µM. The EC50 ([5]; Fusarium sambucinum, isolate F. sambucinum ex SASA, log-probability plot) was 0.7 µM and the EC50 [6] was 12.9 µM.
With `C=CCOC(Cn1ccnc1)c1ccc(Cl)cc1Cl` (stereo not drawn) [Imazalilium docusate, imazalilium docusate] the “T5% onset (decomposition temperature, onset to 5 wt % mass loss)” value [7] was 208.8 °C, the “activity against P. erythroseptica” value ([1]; in words, Table 6) was “showed some activity” and the EC50 [1, 9] was 38.4 µM. It also gave an EC50 ([1]; isolate P. erythroseptica Rooster Eire) of 100 µM, an EC50 [2] of 4.6 µM and an EC50 [3] of 7.3 µM. For the same molecule, the EC50 [4] was 0.4 µM, the EC50 ([5]; isolate F. sambucinum L'gall 11) was 2.6 µM and the EC50 ([5]; isolate F. sambucinum ex SASA, log-probability plot) was 1 µM. For the same molecule, the EC50 [6] was 19.2 µM.
In the case of `c1ccc2[nH]c(-c3cscn3)nc2c1` [TBZ docusate, thiabendazolium docusate], the “activity against P. erythroseptica compared with thiabendazole alone” value [8] is reported as “more active” and the “T5% onset (decomposition temperature, onset to 5 wt % mass loss)” value [7] is reported as 252.0 °C.
In the case of `CCn1cc[n+](C)c1.CCn1cc[n+](C)c1.S=C([S-])NCCNC(=S)[S-]` [[C2mim]2ebdtc, di(1-ethyl-3-methylimidazolium)ethylenbis-(dithiocarbamate)], the “T5% onset (decomposition temperature, onset to 5 wt % mass loss)” value [7] is reported as 147.1.
